Source: patent US20070155660A1, “Inhibition of voluntary ethanol consumption with selective melanocortin 4-receptor agonists” (priority 2003, published 2007)
Numbered stars: 1 amine (or outer) side, 2 acyl side, 3 side chain; on linkers, the order of the positions; unused ones are H or OH. Bridge positions count the residues as written; N and C are the ends. Square brackets hold non-standard residues; d marks the D form. Peptide text beside a SMILES is read from it. ξ: configuration not given here. dPhe(4-Cl) = N[C@H](Cc1ccc(Cl)cc1)C(=O)O; 2Nal = N[C@@H](Cc1ccc2ccccc2c1)C(=O)O; Suc = O=C(CCC(=O)[*:2])[*:1]; ξE = NC(CCC(=O)O)C(=O)O; ξDab = NCCC(N)C(=O)O; ξK = NCCCCC(N)C(=O)O; ξDap = NCC(N)C(=O)O; Ava = NCCCCC(=O)O; GABA = NCCCC(=O)O

How the values were obtained:
MC4R [1] = molecular target: T1, MC4R (Homo sapiens, UniProt P32245); assay: cAMP assay in CHO cells expressing a human melanocortin receptor; type: cell-based; design: expressed in transfected cells; host or cells: Chinese hamster ovary (CHO) cells; details: for Selectivity cAMP EC50 3R/4R: ratio of EC50 hMC-3R / hMC-4R; for Selectivity cAMP EC50 5R/4R: ratio of EC50 hMC-5R / hMC-4R
Method: (§1) Chinese hamster ovary cells expressing a human melanocortin receptor were rinsed with calcium-and magnesium-free PBS (Life Technologies), and detached from the tissue culture flasks by 5-minutes incubation with enzyme-free dissociation buffer (S-014-B, Specialty Media). Cells were collected by centrifugation and resuspended in Earle's balanced salt solution (Life Technologies) with addition of 10 mM 4-(2-hydroxyethyl)-1-piperazineethanesulfonic acid (Hepes) buffer, pH 7.5, 5 mM MgCl2, 1 mM glutamine, and 1 mg/ml bovine serum albumin to concentration of 1-5×10^6 cells/ml. Subsequently, cells were counted and the cell suspension was treated with the phosphodiesterase inhibitor 3-isobutyl-1-methylxanthine (to concentration of 0.6 mM).
(§2) A test compound was dissolved in dimethyl sulfoxide (DMSO, 10^−3 to 10^−8 M), diluted with buffer and 0.1 volume of the solution was added to 0.9 volumes of the cell suspension (1 to 5×10^5 cells); final concentration of DMSO was 1%. After 45 minutes at room temperature, cells were lysed by incubation at 100° C. for 5 minutes to release accumulated cAMP. Accumulation of cAMP was measured in an aliquot of the cell lysate with the Amersham (Arlington Heights, Ill.) cAMP detection assay kit (RPA556). The amount of cAMP produced in response to a tested compound was compared to the amount of cAMP produced in response to α-MSH, defined as a 100% agonist. All active peptides were characterized in three independent experiments.
Target sequence in this assay (P32245 whole entry): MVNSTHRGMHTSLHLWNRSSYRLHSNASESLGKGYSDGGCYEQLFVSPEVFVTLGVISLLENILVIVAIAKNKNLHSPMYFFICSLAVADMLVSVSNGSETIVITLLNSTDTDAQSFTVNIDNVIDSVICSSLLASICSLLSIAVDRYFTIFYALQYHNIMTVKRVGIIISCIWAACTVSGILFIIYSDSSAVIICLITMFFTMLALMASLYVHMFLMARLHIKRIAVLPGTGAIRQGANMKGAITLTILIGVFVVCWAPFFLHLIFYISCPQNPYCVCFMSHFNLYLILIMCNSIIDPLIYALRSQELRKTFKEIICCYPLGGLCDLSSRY

MC4R [2] = molecular target: T1, MC4R; assay: Competitive binding assay, [125I]-NDP-α-MSH, CHO cell membranes; design: expressed in transfected cells; host or cells: Chinese hamster ovary (CHO) cells; details: for Selectivity Binding IC50 3R/4R: ratio of IC50 hMC-3R / hMC-4R; for Selectivity Binding IC50 5R/4R: ratio of IC50 hMC-5R / hMC-4R
Method: The peptides of the present invention were evaluated for […] in receptor binding assay. Crude membrane preparations were obtained from Chinese hamster ovary cells expressing human MC3, MC4, and MC5 receptors. Cells were rinsed with phosphate-buffered saline (PBS) lacking CaCl2 or MgCl2 (Life Technologies, Gaithersburg, Md., USA), and then detached with enzyme-free dissociation media (Specialty Media, Lavellette, N.J., USA). Cells were pelleted at 2800×g for 10 minutes and resuspended in membrane buffer (20 mM Tris, pH 7.2, 5 mM ethylenediaminetetraacetic acid) with 5 μg/ml leupeptin, 5 μg/ml aprotinin, 40 μg/ml bacitracin, and 25 μg/m pefabloc (Boehringer Mannheim). The cells were […] with 10 strokes by using a motor-driven Teflon-coated pestle in a glass homogenizer at low speed. The resulting cell suspension was centrifuged at 4100×g, 4° C., for 20 minutes. The pellet was resuspended in fresh membrane buffer with protease inhibitors, aliquoted, snap-frozen in liquid nitrogen, and stored at −80° C. The resulting crude membranes were titrated to determine the optimal level necessary for performing binding studies. Results
Binding reactions (total volume=[…]) contained MBB (50 mM Tris, pH 7.2, 2 mM CaCl2, 1 mM MgCl2), 0.1% bovine serum albumin, crude membranes prepared from cells expressing human MC3, MC4, or MC5 receptor, 200 pM of [125I]-NDP-α-MSH (Amersham, Arlington Heighs, Ill., USA), and increasing concentrations of unlabeled test compounds dissolved in dimethylsulfoxide (final concentration=2%). Reactions were incubated for 1 hour without shaking and then filtered through 96-well filter plates (Packard), presoaked in 1% polyethyleneimine. Filters were washed 3 times with TNE buffer (50 mM Tris, pH 7.4, 5 mM ethylenediaminetetraacetic acid, 150 mM NaCl), dried and counted by using Microscint-20 in a Topcount scintillation counter (Packard). Nonspecific binding was determined in the presence of 2 μm of unlabeled NDP-α-MSH (Peninsula Laboratories). Active peptides were evaluated in three independent experiments.
Target sequence in this assay (P32245 whole entry): as above

MC5R [3] = molecular target: T2, MC5R (Homo sapiens, UniProt P33032); assay: cAMP assay in CHO cells expressing a human melanocortin receptor; type: cell-based; design: expressed in transfected cells; host or cells: Chinese hamster ovary (CHO) cells; details: @ 5 (concentration unit not given); cAMP relative to α-MSH defined as 100% agonist
Method: as §1, §2
Target sequence in this assay (P33032 whole entry): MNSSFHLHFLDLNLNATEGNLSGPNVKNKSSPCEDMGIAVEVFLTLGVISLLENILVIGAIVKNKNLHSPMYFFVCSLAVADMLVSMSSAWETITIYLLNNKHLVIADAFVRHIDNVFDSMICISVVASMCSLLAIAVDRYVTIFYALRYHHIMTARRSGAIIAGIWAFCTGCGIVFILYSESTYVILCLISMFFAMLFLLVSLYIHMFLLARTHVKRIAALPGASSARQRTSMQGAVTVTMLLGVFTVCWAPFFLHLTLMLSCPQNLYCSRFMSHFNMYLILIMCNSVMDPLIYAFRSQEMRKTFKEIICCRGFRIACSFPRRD

AA rats = details: MTII by central infusion; cited from earlier work
MC5R [4] = molecular target: T2, MC5R; details: cited from earlier work
Target sequence in this assay (P33032 whole entry, species assumed): as the sequence (P33032 whole entry) above

C57BL/6J mice = assay: Ethanol consumption following central (i.c.v.) infusion of MC4R agonist; type: in vivo; details: for reduction of alcohol consumption: 20% ethanol, vs aCSF
Text: The generation of Mc3r^−/− mice has been described (Chen, S. et al., Nature Genetics (2000) 26: 97-102). Mc3r^−/− mice are born at the expected frequency and are viable and fertile. […] Studies described below utilized male and female Mc3r^−/− and/or Mc3r^+/+ mice of a C57BL/6J genetic background, 8 to 12 weeks of age at the start of experiment. Non-littermate heterozygous (Mc3r^+/−) mice were bred, resulting in Mc3r^−/− and Mc3r ^+/+ F2 littermate mice. Mice were individually housed in polypropylene cages with wood-chip bedding and had ad libitum access to standard rodent chow (Teklad, Madison, Wis.) and water throughout the experiments except where noted. The colony room was maintained at approximately 22° C. with a 12h:12h light:dark cycle. All procedures used in the present research were in compliance with the National Institute of Health guidelines, and the protocols were approved by the University of North Carolina Animal Care and Use Committee.
Naïve mice were anesthetized with a cocktail of ketamine (117 mg/kg) and xylazine (7.92 mg/kg) and surgically implanted with a 26-gauge cannula (Plastic One, Roanoke, Va.) aimed at the left-lateral ventricle using the following stereotaxic coordinates: 0.2 mm posterior to bregma, 1.0 mm lateral to the midline, and 2.3 mm ventral to the skull surface. Mice were allowed to recover for approximately 2 weeks before experimental procedures were initiated. After experimental procedures, cannula placement was verified histologically. The i.c.v. infusions were given in a 1.0 μl volume with a 5.0 μl Hamilton syringe and infused manually over a one minute period. Mice were acclimated for approximately 2 weeks to drinking from two bottles (continuous 24 hour/day access), one containing water and the other containing 20% ethanol, and body weights were recorded weekly. Following acclimation, mice were distributed to groups based on the last 4-days of baseline ethanol consumption (g/kg/day).
Mice were weighed and ethanol, water, and food were removed from their cages two hours before the beginning of the dark cycle. For the study with i.c.v. infusion of MC4R agonist, C57B1/6J mice were given infusion of either 1.0 or 3.0 μg of the MC4R-selective agonist, cyclo(NH—CH2—CH2—CO-His-D-Phe-Arg-Trp-Glu)-NH2 (Compound A, Phoenix Pharmaceuticals, Inc., Belmont, Calif.) dissolved in aCSF (ns=7 and 8, respectively) or an equal volume of aCSF (n=10) one hour before the beginning of the dark cycle. The 20% ethanol solution, water, and food were returned immediately before the dark cycle and consumption measures were recorded 4 hours and 24 hours later. One-way (drug) ANOVAs were used to assess consumption of 20% ethanol following i.c.v. infusion of MC4R agonist or aCSF.

MC4R [5] = molecular target: T1, MC4R; details: cited from earlier work
Target sequence in this assay (P32245 whole entry, species assumed): as the sequence (P32245 whole entry) above

Selectivity cAMP EC50 3R/4R (MC4R [1]) | Selectivity cAMP EC50 5R/4R (MC4R [1]) | Selectivity Binding IC50 3R/4R (MC4R [2]) | Selectivity Binding IC50 5R/4R (MC4R [2]) | Compound | other results
33 | 357 | 16.7 | 124 | N=C(N)NCCC[C@@H]1NC(=O)[C@@H](Cc2ccccc2)NC(=O)[C@H](Cc2c[nH]cn2)NC(=O)CCC(=O)NCCCCC(C(N)=O)NC(=O)[C@H](Cc2c[nH]c3ccccc23)NC1=O (stereo partly shown) [Example 1] (H[dF]RW[ξK]-NH2; linker N-5 via Suc) | 
83 | 758 | 51.3 | 205 | N=C(N)NCCC[C@@H]1NC(=O)[C@@H](Cc2ccccc2)NC(=O)[C@H](Cc2c[nH]cn2)NC(=O)CCC(=O)NCCC(C(N)=O)NC(=O)[C@H](Cc2c[nH]c3ccccc23)NC1=O (stereo partly shown) [Example 2] (H[dF]RW[ξDab]-NH2; linker N-5 via Suc) | 
17.8 |  | 22.5 | 50.7 | N=C(N)NCCC[C@@H]1NC(=O)[C@@H](Cc2ccccc2)NC(=O)[C@H](Cc2c[nH]cn2)NC(=O)CCC(=O)NCC(C(N)=O)NC(=O)[C@H](Cc2c[nH]c3ccccc23)NC1=O (stereo partly shown) [Example 3] (H[dF]RW[ξDap]-NH2; linker N-5 via Suc) | cAMP Assay hMC-5R, % @ 5 (MC5R [3]): 12% @ 5
54 | 229.7 | 10 | 54 | N=C(N)NCCC[C@@H]1NC(=O)[C@@H](Cc2ccc(Cl)cc2)NC(=O)[C@H](Cc2c[nH]cn2)NC(=O)CCC(=O)NCCCCC(C(N)=O)NC(=O)[C@H](Cc2c[nH]c3ccccc23)NC1=O (stereo partly shown) [Example 4] (H[dPhe(4-Cl)]RW[ξK]-NH2; linker N-5 via Suc) | 
97.3 | 1351.3 | 33.85 | 1538 | N=C(N)NCCC[C@@H]1NC(=O)[C@@H](Cc2ccccc2)NC(=O)[C@H](Cc2c[nH]cn2)NC(=O)CCC(=O)NCCCCC(C(N)=O)NC(=O)[C@H](Cc2ccc3ccccc3c2)NC1=O (stereo partly shown) [Example 5] (H[dF]R[2Nal][ξK]-NH2; linker N-5 via Suc) | 
70.4 | 703.7 | 48 | 750 | N=C(N)NCCC[C@@H]1NC(=O)[C@@H](Cc2ccccc2)NC(=O)[C@H](Cc2c[nH]cn2)NC(=O)CCCCNC(=O)CCC(C(N)=O)NC(=O)[C@H](Cc2c[nH]c3ccccc23)NC1=O (stereo partly shown) [Example 6] ([Ava]H[dF]RW[ξE]-NH2; lactam N-6) | 
54.39 | 877 | 44 | 121.9 | N=C(N)NCCC[C@@H]1NC(=O)[C@@H](Cc2ccccc2)NC(=O)[C@H](Cc2c[nH]cn2)NC(=O)CCCNC(=O)CCC(C(N)=O)NC(=O)[C@H](Cc2c[nH]c3ccccc23)NC1=O (stereo partly shown) [Example 7] ([GABA]H[dF]RW[ξE]-NH2; lactam N-6) | 
62.86 |  | 3.45 | 3.45 | N=C(N)NCCC[C@@H]1NC(=O)[C@@H](Cc2ccccc2)NC(=O)[C@H](Cc2c[nH]cn2)NC(=O)CNC(=O)CCC(C(N)=O)NC(=O)[C@H](Cc2c[nH]c3ccccc23)NC1=O (stereo partly shown) [Example 9] (GH[dF]RW[ξE]-NH2; lactam N-6) | cAMP Assay hMC-5R, % @ 5 (MC5R [3]): 15% @ 5
 |  |  |  | MTII | effect on voluntary ethanol drinking (AA rats): significantly reduces voluntary ethanol drinking
 |  |  |  | cyclo(NH—CH2—CH2—CO-His-D-Phe-Arg-Trp-Glu)-NH2 (FRWE; cyclic with beta-alanine linker, His, C-terminal amide; printed: Phe-Arg-Trp-Glu) [Compound A] | binding and activation of MC5R (MC5R [4]): extremely weak binding and activation of MC5R; reduction of alcohol consumption (C57BL/6J mice; 1.0 μg i.c.v.): 67%; reduction of alcohol consumption (C57BL/6J mice; 3.0 μg i.c.v.): 86%; effect on ethanol drinking (C57BL/6J mice; C57BL/6J mice): significant reduction of ethanol drinking; less alcohol consumed than untreated controls (C57BL/6J mice; C57BL/6J mice, dose not given): up to 86%; selectivity for MC4R over MC3R (MC4R [5]): 90 fold; selectivity for MC4R over MC5R (MC4R [5]): greater than 2000 fold
